This note sets out measurements from ChEMBL document CHEMBL1201862, “PubChem BioAssay data set” (2004).

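Step 1: Grow cells in 96-well plates. Step 2: Expose to compound for 48 hours at 5 concentrations. Step 3: Interpolate endpoints linearly; if unreached, use highest concentration. At the GI50, growth is halved.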 The source made the active and inactive calls. Rule as the data show it: active = GI50 up to about 1.1 µM and inactive = higher. Some results are limits rather than exact numbers.

Among the test systems are ACHN; DU-145; HCT-116; HCT-15; HOP-62; HOP-92; IGROV-1; MCF7; MDA-MB-231; Malme-3M; NCI-H460; NCI/ADR-RES; OVCAR-3; PC-3; SF-539; SK-MEL-2; SK-MEL-5; SK-OV-3; SNB-19.
Common to all, as to test: DTP human tumour cell line panel, 48 h

A word on the GI50: it is the concentration giving 50% growth inhibition. Turning to `CCCCCCCCCCCCCCCCOc1ccc(/C=C/C2=[N+](CCCl)CCO2)cc1`, the GI50 with ACHN was > 100 µM (inactive); in the test with DU-145 it was > 100 µM (inactive); in the test with HCT-116, 25.5 µM (inactive); in the test with HCT-15 it was over 100 µM; in the test on HOP-62 it was 87.3 µM (inactive); in the test with HOP-92 it was > 100 µM (inactive). The GI50 in the test on IGROV-1 was 61.2 µM (inactive); in the test on MCF7, > 100 µM (inactive); in the test on MDA-MB-231, 20.1 µM (inactive); in the test on Malme-3M it was > 100 µM (inactive); in the test with NCI-H460, 90.4 µM (inactive); with NCI/ADR-RES it was 56.1 µM (inactive). Moreover, the GI50 with OVCAR-3, with PC-3, in the test with SF-539, in the test with SK-MEL-2, in the test on SK-MEL-5 and with SK-OV-3 was > 100 µM (inactive) throughout. Also, the GI50 with SNB-19 is > 100 µM (inactive).
`C[C@H]1[C@H](C)N1CC(O)Cn1ccnc1[N+](=O)[O-]` (stereo partly specified): the GI50 with ACHN was > 100 µM (inactive); with DU-145 it was > 100 µM (inactive); with HCT-116 it was > 100 µM (inactive); in the test with HCT-15 it was over 100 µM; in the test with HOP-62 it was > 100 µM (inactive); with HOP-92, 1 µM (active). Besides, the GI50 in the test with IGROV-1, with MCF7, with MDA-MB-231, with Malme-3M, with NCI-H460 and with NCI/ADR-RES was > 100 µM (inactive) throughout. Also, the GI50 in the test with OVCAR-3, in the test with PC-3, with SF-539, in the test with SK-MEL-2, in the test on SK-MEL-5 and in the test with SK-OV-3 was > 100 µM (inactive) in each case. For the same compound, the GI50 with SNB-19 was > 100 µM (inactive).
For the compound `O=C(O)c1ccc(Oc2nc3ccccc3s2)cc1`, the GI50 in the test with ACHN was > 100 µM (inactive); in the test with DU-145, > 100 µM (inactive); in the test with HCT-116 it was > 100 µM (inactive); in the test with HCT-15, over 100 µM; in the test with HOP-62, > 100 µM (inactive); in the test with HOP-92 it was 87.9 µM (inactive). The GI50 in the test on IGROV-1, in the test on MCF7, in the test on MDA-MB-231, in the test on Malme-3M, in the test with NCI-H460 and in the test with NCI/ADR-RES was > 100 µM (inactive) each time. For the same compound, the GI50 in the test on OVCAR-3, in the test with PC-3, in the test on SF-539, with SK-MEL-2, in the test on SK-MEL-5 and in the test with SK-OV-3 was > 100 µM (inactive) in each case. The GI50 in the test with SNB-19 was > 100 µM (inactive).
Turning to `O=[N+]([O-])c1ccc(/C=N\N=c2/ccc([N+](=O)[O-])c[nH]2)cc1`, the GI50 with ACHN was > 100 µM (inactive); in the test on DU-145, > 100 µM (inactive); with HCT-116, > 100 µM (inactive); in the test on HCT-15, over 100 µM; with HOP-62 it was > 100 µM (inactive); in the test on HOP-92, > 100 µM (inactive). The GI50 in the test with IGROV-1 is > 100 µM (inactive); in the test with MCF7, > 100 µM (inactive); in the test on MDA-MB-231 it was 46 µM (inactive); with Malme-3M it was > 100 µM (inactive); with NCI-H460, > 100 µM (inactive); in the test with NCI/ADR-RES it was > 100 µM (inactive). Further, the GI50 with OVCAR-3 was > 100 µM (inactive); in the test with PC-3, > 100 µM (inactive); in the test on SF-539, 32.6 µM (inactive); with SK-MEL-2, > 100 µM (inactive); in the test on SK-MEL-5 it was > 100 µM (inactive); in the test on SK-OV-3 it was 86.9 µM (inactive). In addition, the GI50 in the test with SNB-19 is > 100 µM (inactive).
